Here are results for 2 compounds from patent publication US12083111B2, “Use of hexokinase 2/mitochondria-detaching compounds for activating immune responses” (Vidac Pharma Ltd., priority 2016, dated 2024).

In data set [1] the test system is primary Balb/C mouse splenocytes (CD8+ T cells). Kind of data set: Activated primary splenocytes: FACS for CD44, CD62L and live cells. It counts as cell-based. The method, then: FIGS. 7A-F. Formula C administration shifts effector CD8+ T cells to central memory cells. Primary Balb/C mouse splenocytes were grown in culture and activated by anti-CD3e and anti CD28 antibodies to shift them towards CD8+/CD4+ phenotype. Cells were then treated with Formula C (FIG. 7E), 2-DG (2-deoxyglucose, positive control) (FIG. 7C), or vehicle (FIG. 7B, FIG. 7D) for 24 hours followed by FACS analysis for CD44 and CD62L.
Spleens from the 2 BALB/C female mice (8.5 weeks old) were injected with cold PBS in a […] to obtain cell suspension, using a 27 g needle. The spleens were then crushed using the back of a 10 ml syringe. The suspension was passed through a 21 g needle and filtered using a 70 um cells strainer. The plate was washed once with 10 ml PBS and the solution was filtered as well. Cells were centrifuged for 10 min at 1200 rpm, 4° C. The pellet was broken on the grill and re-suspended in 10 ml AKC X1 lysis buffer (1:10 dilution of X10 stock in Ultra-Pure Water). After 5 min on ice, PBS was added to a final volume of 50 ml, and cells were centrifuged for 10 min at 1200 rpm, 4° C. Pellet was re-suspended in 10 ml PBS and washed twice. After washing, pellet was re-suspended in 20 ml DCs medium and passed through a 40 μm cell strainer. Cells were suspended to 3×10^6 ml with DC medium and supplemented with 1:1000 (100 Units/ml) hIL-2 and 1:1000 (1 ug/ml) anti-CD28.
The cells were seeded 1 ml/well in a 24-well plate precoated with 5 μg/ml 250 μl/well of anti-CD3e and carefully washed twice with 0.5 ml PBS (−/−), cells were added on the side of the wells to avoid washing away the antibody.
Splenocytes were plated at 10^6 cells/well in a 24-well plate coated with 5 μg/ml anti-CD3e with soluble anti CD28 2 μg/ml and IL-2 100 units/ml. […]
On the following day, cells were stained with: ghost dye 1 ul/sample (live/dead), and the following antibodies: CD62L, CD44, CD3, CD4, CD8 and analyzed by fluorescence-activated cell sorting (FACS).

In data set [2] the test system is B16-F10 melanoma cells. Kind of data set: Topical treatment in the mouse B16-F10 melanoma model: tumor volume. To be noted: 50% v/v in olive oil. It counts as in vivo. As to the method:
Mouse melanoma (B16-F10) cells were used. Mouse B16-F10 melanoma cells were maintained in DMEM. Media was supplemented with 10% heat-inactivated FCS, penicillin (100 U/ml), streptomycin (100 μg/ml), Sodium pyruvate (2 mM), and L-glutamine (4 mM). Confluent cultures were washed with PBS, detached with trypsin (0.25%), centrifuged, and subcultured in 96-well microtiter test plates.
(§1) Female C57Bl/6 mice at 8 weeks of age were purchased from Harlan, Jerusalem, Israel. The animals were housed (6 or 7/cage) under controlled conditions (temperature, light, humidity) and given food and water ad libitum. After 14 days of acclimatization, the animals were inoculated with 0.25*10^6 B16-F10 melanoma cells/mouse in 30 μl PBS under the skin of the right ear of each mouse.
(§2) The mice were inoculated with B16-F10 melanoma cells and divided randomly into […] (9 mice each): a) B16-F10 inoculated, untreated; and b) B16-F10 inoculated, Formula C (50% v/v in olive oil) treated
(§3) The treatment was initiated when the tumors reached the target volume of approximately 1 mm^3. Drug was topically administered to the area of the tumor daily for 18 days.

Data set [3] relates to B16-F10 melanoma mice. Kind of data set: Ear inflammation score in the mouse B16-F10 melanoma model. To be noted: scale 0-4, topical. It is filed as in vivo. The method, then:
as §1, §2, §3
Inflammation was graded on a scale of 0-4 as: 0 (absence of inflammation), 1 (redness), 2 (tissue inflammation), 3 (pronounced tissue inflammation), and 4 (damage to the ear).

Data set [4] relates to skin of UVB-exposed SKH-1 mice. Kind of data set: UVB-exposed SKH-1 mouse AK/cSCC model: histology and IHC of immune cells in skin. It is filed as in vivo. The method, then:
The formulation ingredients for vehicle, 2.5%, and 5% Formula C ointment consisted of: 32% Gelucire44/14® (Gattefossé, Saint-Priest, France), and 68% combined Labrasol® (Gattefossé, Saint-Priest, France) with corresponding amount of Formula C (w/w). New ointments were prepared every 2 weeks. The 40% topical solution was prepared just prior to use by mixing (w/w) 60% propylene glycol (Sigma, St. Louis, MO, USA) with 40% Formula C.
UVB-induced skin damage was adopted from previous publications. Forty-eight SKH-1 hairless female mice were chronically exposed to 1.25 times the Minimal Erythemal Dose (MED) of UVB radiation. Lamp VL-6.M was used, irradiating at 312 nm with an intensity of 0.89 mW/cm2 (validated on Day 44) at a distance of 15 cm. Determination of UVB irradiation Minimal Erythemal Dose (MED) was performed prior to the beginning of the study. Animals were UVB irradiated for different duration (starting at 30 sec) and the presence of erythema was recorded 24 and 48 hours later. 1.25 times the MED of UVB irradiation was established to be equal to an exposure time of 5 min. Mice were UVB irradiated for 4-5 min at each irradiation session during the 16 weeks of pre-treatment disease induction. Prior to every irradiation session, the lamp was turned on for 5 min to ensure it reaches its maximal intensity. The irradiation schedule was five times a week for two weeks, one week off, and then three times a week through week 16. By that time, more than 60% of the animals had developed at least one SCC lesion. Three days after the final irradiation dose, the mice were randomly assigned to 1 of 4 treatment groups (N=12 mice/group), with similar tumor burden distribution between groups, and a 50-day treatment phase started. The 6 cm^2 (2×3 cm) treatment area was marked on the back of the mice with a black eight points rectangle tattoo. Five spare mice with the highest tumor burden were excluded from the main study. Treatment groups included: vehicle, 2.5% or 5% Formula C ointment, 50 μl of which was applied once-daily for 50 days, or 50 μl of 40% Formula C topical solution applied once-daily for the first 5 days of every three-week cycle (total of three treatment cycles). Following administration, each animal was placed in individual cage without bedding for 1.5 hours, until the ointment was absorbed.
Histopathological analysis and IHC was performed according to standard protocols. Primary antibodies used: Rabbit anti-CD3 (SP7), rabbit anti-F4/80 (SB-M3072, SB-M4152, Nordic Biosite, Täby, Sweden), mouse anti-Langerin/CD207 (DDX0361, Dendritics, Lyon, France). A polymer system was used as a secondary antibody (KDB-10046 and KDB-10007, Nordic Biosite, Täby, Sweden). Semi-quantitative analysis was done in a blinded manner by a single experienced pathologist scoring ×40 high power fields, 7 different fields per slide.
Statistical analysis was carried out using Graphpad Prism version 5.03 (Graphpad Software, San Diego, CA).

The test system of data set [5] is THP-1 human monocytes differentiated to macrophages. Kind of data set: IL-1β secretion from LPS-stimulated THP-1-derived macrophages (ELISA). It is filed as cell-based. As to conditions: PMA-differentiated, ELISA of culture medium. As to the method: FIG. 4. Formula C stimulates IL-1β secretion in activated human macrophages in vitro. THP-1 human monocytes were differentiated to mature macrophages and stimulated with LPS (Lipopolysaccharide) followed by Formula C treatment. Secreted IL-1β was analyzed in the culture medium by ELISA.
The human monocyte cell line, THP-1, was grown in 10% FCS in RPMI medium. Cells were plated in 24 well plate, 5*10^6 cells/well and were differentiated to macrophages in the presence of 0.5 uM PMA (phorbol 12-myristate 13-acetate) for 24 hr. Media was replaced to contain LPS (10 ug/mL), 24 hr stimulation. ATP was added for 2 hours. Supernatants were collected and assayed by ELISA for the presence of IL-1β.
(ELISA stands for enzyme-linked immunosorbent assay.)

The test system of data set [6] is mouse bone marrow-derived macrophages (BMDM). Kind of data set: IL-1β secretion and viability in primary bone marrow-derived macrophages. It counts as cell-based. As to conditions: BALB/C or C57BL BMDM. The method, then: BALB/C mouse bone marrow-derived macrophages (BMDM) or C57BL mouse bone marrow-derived macrophages were seeded at 3×10^4 cells/well in 96 well plates. The following day, cells were stimulated with interferon-gamma (IFNγ) overnight 50 ng/ml. Then Ultra-pure LPS (100 ng/ml) was added for 4 hours, followed by compound treatment for overnight, except for ATP (all compounds were added on top); ATP for 40 min. ELISA was performed on supernatants for mouse IL-1β detection. ATP and 2-DG were used as positive controls. No signal without IFN-γ even when seeded at 100,000 cells per well.

Data set [7] relates to CT26 mouse colorectal cancer cells. Kind of data set: CT26 syngeneic colorectal cancer model: tumor volume. It counts as in vivo. As to conditions: Balb/C mice, SC with esterase-inhibitor BNPP (IP). The method, then:
(§4) Colorectal cancer was induced in Balb/C mice using CT26 mouse colorectal cancer cells. Formula C was administered SC with esterase-inhibitor BNPP (IP).

Data set [8] concerns macrophages in CT26 tumors. Kind of data set: FACS of CT26 tumors for macrophage markers MHCII and CD206 (M2 to M1 shift). It is filed as in vivo, mouse. To be noted: 150 mg/kg, day 20. As to the method: FIG. 6B. Formula C administration shifts macrophages in vivo from pro-tumor (M2) macrophages to antitumor (M1) macrophages. CT26 tumors from Formula C or vehicle-treated Balb/C mice with CT26 mouse colorectal cancer was analyzed for MHCII marker by FACS. Dark color: Vehicle treated CT26 tumors from Balb/C mice (day 20). Light color: Formula C (150 mg/kg) treated CT26 tumors from Balb/C mice (day 20).
FIG. 6C. Formula C administration shifts macrophages in vivo from pro-tumor (M2) macrophages to antitumor (M1) macrophages. CT26 tumors from Formula C or vehicle-treated Balb/C mice with CT26 mouse colorectal cancer was analyzed for CD206. Dark color: Vehicle treated CT26 tumors from Balb/C mice (day 20). Light color: Formula C (150 mg/kg) treated CT26 tumors from Balb/C mice (day 20).
as §4
Pro-tumor M2 Macrophages are characterized by low MHCII and high CD206. In contrast, anti-tumor M1 Macrophages are characterized by high MHCII and low CD206. CT26 tumors from Formula C or vehicle-treated Balb/C mice with CT26 mouse colorectal cancer were analyzed for MHCII (FIG. 6B) and CD206 (FIG. 6C) levels 20 days after treatment started.

The mark [9] stands for this setting: high dose (40%) group, trending also at lower doses.
Where [10] appears, read: topical 2.5%, 5% ointment or 40% solution, 50-day treatment phase.

On to `O=CC[C@@H](O)[C@H](O)[C@H](O)CO` [Formula 2-DG, 2-deoxyglucose, reference compound], for which, in data set [1] (stimulated splenocytes, 24 hours treatment, ghost dye), the “percentage of live cells” value was “Neither Formula C nor 2-DG treatment significantly affected the percentage of live cells”.

`CC/C=C\CC1C(=O)CCC1CC(=O)Oc1cccc2cccnc12` (stereo not drawn) [Formula C]: the “tumor volume compared with untreated group” value in data set [2] (topical daily for 18 days, after day 11) is on record as “significantly lower than the tumor volume in the untreated group”. Besides, in data set [2] (topical daily, C57Bl/6 mice, right ear, first 11 days), the tumor growth result is “no tumor growth for 11 days”. In addition, the average inflammation score entry in data set [3] (before the 18th day of treatment) is reported as “over 3”. In data set [3] (by about the 15th day of treatment), the average inflammation score result is recorded as “about 3”. Besides, in data set [4] (setting [9]), the “CD3+ T cells in skin versus vehicle-treated” value is recorded as “statistically-significant increase” and the “Langerin+ dendritic cells in skin versus vehicle-treated” value is reported as “statistically-significant increase”. For the same compound, in data set [4] (setting [10]), the “mast cells in skin (toluidine blue) versus vehicle-treated” value was “statistically significant, dose-related increase” and the “overall inflammation (H&E staining) versus vehicle-treated” value was “without apparent difference”. In addition, in data set [4] (topical, 50-day treatment phase, data not shown), the “F4/80 general staining for macrophages” value was “no change”. For the same compound, the IL-1β secretion entry in data set [5] is on record as “induced IL-1β secretion”. For the same compound, the IL-1β secretion entry in data set [6] (IFNγ then LPS, compound overnight, ELISA) is listed as “dose-dependently elicited IL-1β secretion”. The cell viability entry in data set [6] (even at high dosage) was “little effect on cell viability”. Moreover, in data set [7], the tumor volume result is recorded as “decreased tumor volume”. In data set [8], the “CD206 levels versus vehicle-treated” value is given as “lower CD206 levels” and the “MHCII levels versus vehicle-treated” value is on record as “higher MHCII levels”. The “CD44 and CD62L expression (shift from effector to memory cells) versus vehicle-treated” value in data set [1] (anti-CD3e/anti-CD28 stimulated splenocytes, 24 hours treatment) was “higher CD44 and higher CD62L expression”. In addition, the “percentage of live cells” value in data set [1] (female, BALB/c, mouse, 24 h) is given as “Neither Formula C nor 2-DG treatment significantly affected the percentage of live cells”.
